Test results published in paper PMC11927431 (eGastroenterology, 2025).
Read-outs that look alike come from different tables or passages of the source.

How the values were obtained:
CB1R = CB1R (Mus musculus, UniProt P47746); assay: Radioligand saturation binding assay on brain membrane homogenates; conditions: read-out: Kd ± S.E.M., 30°C, 60 min
[1] = 3 mg/kg; cited from earlier work

Sequence of CB1R (P47746 whole entry): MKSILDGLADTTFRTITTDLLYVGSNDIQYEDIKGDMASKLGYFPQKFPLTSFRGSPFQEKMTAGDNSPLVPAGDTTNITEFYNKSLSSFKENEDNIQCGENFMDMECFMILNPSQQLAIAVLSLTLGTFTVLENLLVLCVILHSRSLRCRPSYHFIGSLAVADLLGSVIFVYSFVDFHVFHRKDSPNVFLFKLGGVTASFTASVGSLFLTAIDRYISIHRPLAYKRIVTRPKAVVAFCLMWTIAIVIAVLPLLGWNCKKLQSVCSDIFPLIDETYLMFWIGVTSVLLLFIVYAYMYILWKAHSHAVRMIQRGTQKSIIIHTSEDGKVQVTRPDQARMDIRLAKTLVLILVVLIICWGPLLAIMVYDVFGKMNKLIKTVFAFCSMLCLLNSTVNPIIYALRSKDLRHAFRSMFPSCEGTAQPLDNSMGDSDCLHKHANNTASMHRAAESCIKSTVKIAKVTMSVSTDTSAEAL

SMILES | Kd (CB1R; CB1^IEC-/- mouse brain membrane homogenate) | Kd (CB1R; CB1^f/f mouse brain membrane homogenate) | Anxiogenic behaviour [1]
CCCCCCC(C)(C)c1ccc([C@@H]2C[C@H](O)CC[C@H]2CCCO)c(O)c1 [[^3H]-CP55.940] | 1.7 nM | 1.68 nM | –
Cc1c(C(=O)NN2CCCCC2)nn(-c2ccc(Cl)cc2Cl)c1-c1ccc(Cl)cc1 [rimonabant] | – | – | induced significant anxiety
